Target: T1, NLRP3 inflammasome (Homo sapiens, UniProt Q96P20)
T1 construct: endogenous in cells; host or cells: THP-1 cells (PMA-differentiated, LPS-primed, nigericin-stimulated)
Test: THP-1 Cell-Based NLRP3 Activation Assay
Conditions: THP-1 cells, PMA, 100 ng/mL LPS 3 hrs, 30 min pre-incubation with test compound, 10 μM nigericin 1 hr
Procedure: THP-1 cells are cultured in complete media (CM) until they reach logarithmic growth and achieve a viability >90%. CM is composed of RPMI-1640 (+Glutamax)/10% fetal bovine serum/55 μM β-mercaptoethanol/pen/strep. Cells are spun down and resuspended to 1,000,000 cells/mL in CM containing either 20 nM or 500 nM PMA. 150,000 cells […] are then added to each well of a 96-well TC plate and incubated for either 24 hr or 3 hr, respectively, in a standard cell culture incubator (37° C.; 5% CO2). After this incubation, the plate is tilted and media carefully removed. 200 μL of CM containing 100 ng/mL LPS is then added to the wells and the cells incubated an additional 3 hrs. The media is again removed and replaced with Opti-Mem medium containing pre-determined dilutions of test compounds in replicate wells. After a 30 min pre-incubation with test compound, 10 μM nigericin (final concentration) in Opti-Mem medium with the corresponding concentration of compound is added to the wells for an additional 1 hr. Positive control wells contain 10 μM nigericin in Opti-Mem in the absence of test compound, while negative control wells contain Opti-Mem only. […] Once supernatants are removed, the relative viability of adherent cells in the 96-well TC plate are determined using a CellTiter-Glo® luminescent cell viability assay (Promega).

T1 sequence (Q96P20 whole entry): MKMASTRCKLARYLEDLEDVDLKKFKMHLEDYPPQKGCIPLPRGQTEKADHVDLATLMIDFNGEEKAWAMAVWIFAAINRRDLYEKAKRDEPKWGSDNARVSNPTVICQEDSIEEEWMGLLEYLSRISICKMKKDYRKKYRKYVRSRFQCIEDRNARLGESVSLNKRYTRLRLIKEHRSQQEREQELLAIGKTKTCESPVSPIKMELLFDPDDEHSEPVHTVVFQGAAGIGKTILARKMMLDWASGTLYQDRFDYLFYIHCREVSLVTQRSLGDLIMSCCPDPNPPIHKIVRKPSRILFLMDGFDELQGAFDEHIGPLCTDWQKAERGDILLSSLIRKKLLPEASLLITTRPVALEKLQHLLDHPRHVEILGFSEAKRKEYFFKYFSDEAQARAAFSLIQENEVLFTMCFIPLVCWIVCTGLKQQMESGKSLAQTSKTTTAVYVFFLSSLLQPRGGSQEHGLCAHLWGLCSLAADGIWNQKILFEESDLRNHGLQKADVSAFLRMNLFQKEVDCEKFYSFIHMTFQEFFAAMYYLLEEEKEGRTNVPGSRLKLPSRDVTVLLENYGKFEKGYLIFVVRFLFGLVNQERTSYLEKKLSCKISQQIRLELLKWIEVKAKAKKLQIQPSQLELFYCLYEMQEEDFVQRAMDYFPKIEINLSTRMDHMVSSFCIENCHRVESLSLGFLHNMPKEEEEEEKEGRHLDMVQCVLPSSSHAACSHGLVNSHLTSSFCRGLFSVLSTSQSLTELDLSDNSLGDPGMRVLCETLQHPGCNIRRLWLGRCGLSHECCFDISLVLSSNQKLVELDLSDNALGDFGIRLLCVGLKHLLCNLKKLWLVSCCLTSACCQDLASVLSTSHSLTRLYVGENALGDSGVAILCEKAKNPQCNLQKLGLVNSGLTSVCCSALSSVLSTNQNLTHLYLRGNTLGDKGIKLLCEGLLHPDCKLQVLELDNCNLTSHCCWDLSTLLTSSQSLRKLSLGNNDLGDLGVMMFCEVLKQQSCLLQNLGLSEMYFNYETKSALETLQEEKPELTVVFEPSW

Structure (SMILES) | IC50
CCOc1cc(C(=O)N(C)Cc2c(C(C)O)ncc3cn[nH]c23)ccc1-c1cccc(F)c1 (stereo not shown) [Compound 135] | < 1000 nM
CCOc1cc(C(=O)N(C)Cc2cc(C(=O)OC)cc3cn[nH]c23)ccc1-c1cccc(F)c1 [Compound 008] | < 10000 nM
CN(Cc1cc(O)cc2cn[nH]c12)C(=O)c1cc(F)c(-c2cccc(Cl)c2)c(OC2CC2)c1 [Compound 113] | < 1000 nM
CCOc1nc(C(=O)N(C)[C@H](C)c2ccc(CF)c3cn[nH]c23)ccc1-c1cccc(F)c1 [Compound 075] | < 50000 nM
CN(Cc1cnc(CO)c2cn[nH]c12)C(=O)c1ccc(-c2cccc(F)c2)c(OC2CCC2)c1 [Compound 137] | < 1000 nM
CN(Cc1cnc(CO)c2cn[nH]c12)C(=O)c1cc(Cl)c(-c2cccc(Cl)c2)c(OC2CC2)c1 [Compound 161] | < 1000 nM
CCOc1cc(C(=O)N(CC)Cc2cnc(CO)c3cn[nH]c23)ccc1-c1cccc(Cl)c1 [Compound 177] | < 1000 nM
Cc1ncc(CN(C)C(=O)c2cc(F)c(-c3ccccc3)c(OC3CC3)c2)c2[nH]ncc12 [Compound 064] | < 1000 nM
CCOc1cc(C(=O)N(C)Cc2cnc(C(C)O)c3cn[nH]c23)ccc1-c1cccc(C#N)c1 (stereo not shown) [Compound 029] | < 1000 nM
Cc1ncc([C@H](C)N(C)C(=O)c2cc(F)c(-c3cccc(F)c3)c(OC3CC3)c2)c2[nH]ncc12 [Compound 035] | < 1000 nM
